# Target: T1, human α1G T-type channels (Homo sapiens, UniProt O43497)
# T1 construct: expressed in transfected cells; host or cells: HEK 293
# Assay: T-type calcium channel block, whole cell patch clamp in HEK cells (α1G)
# Assay type: cell-based
# Details: HEK cells, patch clamp, mainly non-inactivated protocol; values above 10 μM shown as 10 μM, below 0.30 μM shown as 0.30 μM; read-out: T-type Calcium Channel Block α1G IC50
# Description: (§1) T-type calcium channel blocking activity was assayed in human embryonic kidney cells, HEK 293, stably transfected with the T-type calcium channel subunits. Briefly, cells were cultured in Dulbecco's modified eagle medium (DMEM) supplemented with 10% fetal bovine serum, 200 U/ml penicillin and 0.2 mg/ml streptomycin at 37° C. with 5% CO2. At 85% confluency cells were split with 0.25% trypsin/1 mM EDTA and plated at 10% confluency on glass coverslips. […] Fresh DMEM was supplied and the cells transferred to 28° C./5% CO2. Cells were incubated for 1 to 2 days prior to whole cell recording.
# (§2) Standard patch-clamp techniques were employed to identify blockers of T-type currents. Briefly, previously described HEK cell lines stably expressing human α1G, α1H and α1I T-type channels were used for all the recordings (passage #: 4-20, 37° C., 5% CO2). Whole cell patch clamp experiments were performed using an Axopatch 200B amplifier (Axon Instruments, Burlingame, Calif.) linked to a personal computer equipped with pCLAMP software. Data were analyzed using Clampfit (Axon Instruments) and SigmaPlot 4.0 (Jandel Scientific). To obtain T-type currents, plastic dishes containing semi-confluent cells were positioned on the stage of a ZEISS AXIOVERT S100 microscope after replacing the culture medium with external solution (see below). Whole-cell patches were obtained using pipettes (borosilicate glass with filament, O.D.: 1.5 mm, I.D.: 0.86 mm, 10 cm length), fabricated on a SUTTER P-97 puller with resistance values of ˜5 MΩ (see below for internal solution).
# (§3) In the non-inactivating protocol, the holding potential is set at −110 mV and with a pre-pulse at −100 mV for 1 second prior to the test pulse at −40 mV for 50 ms.
# (§4) Test compounds were dissolved in external solution, 0.1-0.01% DMSO. After ˜10 min rest, they were applied by gravity close to the cell using a WPI microfil tubing. The “non-inactivated” pre-pulse was used to examine the resting block of a compound. The “inactivated” protocol was employed to study voltage-dependent block. […] Values are shown in μM and values above 10 μM are simply represented as 10 μM.
# T1 sequence (O43497 whole entry): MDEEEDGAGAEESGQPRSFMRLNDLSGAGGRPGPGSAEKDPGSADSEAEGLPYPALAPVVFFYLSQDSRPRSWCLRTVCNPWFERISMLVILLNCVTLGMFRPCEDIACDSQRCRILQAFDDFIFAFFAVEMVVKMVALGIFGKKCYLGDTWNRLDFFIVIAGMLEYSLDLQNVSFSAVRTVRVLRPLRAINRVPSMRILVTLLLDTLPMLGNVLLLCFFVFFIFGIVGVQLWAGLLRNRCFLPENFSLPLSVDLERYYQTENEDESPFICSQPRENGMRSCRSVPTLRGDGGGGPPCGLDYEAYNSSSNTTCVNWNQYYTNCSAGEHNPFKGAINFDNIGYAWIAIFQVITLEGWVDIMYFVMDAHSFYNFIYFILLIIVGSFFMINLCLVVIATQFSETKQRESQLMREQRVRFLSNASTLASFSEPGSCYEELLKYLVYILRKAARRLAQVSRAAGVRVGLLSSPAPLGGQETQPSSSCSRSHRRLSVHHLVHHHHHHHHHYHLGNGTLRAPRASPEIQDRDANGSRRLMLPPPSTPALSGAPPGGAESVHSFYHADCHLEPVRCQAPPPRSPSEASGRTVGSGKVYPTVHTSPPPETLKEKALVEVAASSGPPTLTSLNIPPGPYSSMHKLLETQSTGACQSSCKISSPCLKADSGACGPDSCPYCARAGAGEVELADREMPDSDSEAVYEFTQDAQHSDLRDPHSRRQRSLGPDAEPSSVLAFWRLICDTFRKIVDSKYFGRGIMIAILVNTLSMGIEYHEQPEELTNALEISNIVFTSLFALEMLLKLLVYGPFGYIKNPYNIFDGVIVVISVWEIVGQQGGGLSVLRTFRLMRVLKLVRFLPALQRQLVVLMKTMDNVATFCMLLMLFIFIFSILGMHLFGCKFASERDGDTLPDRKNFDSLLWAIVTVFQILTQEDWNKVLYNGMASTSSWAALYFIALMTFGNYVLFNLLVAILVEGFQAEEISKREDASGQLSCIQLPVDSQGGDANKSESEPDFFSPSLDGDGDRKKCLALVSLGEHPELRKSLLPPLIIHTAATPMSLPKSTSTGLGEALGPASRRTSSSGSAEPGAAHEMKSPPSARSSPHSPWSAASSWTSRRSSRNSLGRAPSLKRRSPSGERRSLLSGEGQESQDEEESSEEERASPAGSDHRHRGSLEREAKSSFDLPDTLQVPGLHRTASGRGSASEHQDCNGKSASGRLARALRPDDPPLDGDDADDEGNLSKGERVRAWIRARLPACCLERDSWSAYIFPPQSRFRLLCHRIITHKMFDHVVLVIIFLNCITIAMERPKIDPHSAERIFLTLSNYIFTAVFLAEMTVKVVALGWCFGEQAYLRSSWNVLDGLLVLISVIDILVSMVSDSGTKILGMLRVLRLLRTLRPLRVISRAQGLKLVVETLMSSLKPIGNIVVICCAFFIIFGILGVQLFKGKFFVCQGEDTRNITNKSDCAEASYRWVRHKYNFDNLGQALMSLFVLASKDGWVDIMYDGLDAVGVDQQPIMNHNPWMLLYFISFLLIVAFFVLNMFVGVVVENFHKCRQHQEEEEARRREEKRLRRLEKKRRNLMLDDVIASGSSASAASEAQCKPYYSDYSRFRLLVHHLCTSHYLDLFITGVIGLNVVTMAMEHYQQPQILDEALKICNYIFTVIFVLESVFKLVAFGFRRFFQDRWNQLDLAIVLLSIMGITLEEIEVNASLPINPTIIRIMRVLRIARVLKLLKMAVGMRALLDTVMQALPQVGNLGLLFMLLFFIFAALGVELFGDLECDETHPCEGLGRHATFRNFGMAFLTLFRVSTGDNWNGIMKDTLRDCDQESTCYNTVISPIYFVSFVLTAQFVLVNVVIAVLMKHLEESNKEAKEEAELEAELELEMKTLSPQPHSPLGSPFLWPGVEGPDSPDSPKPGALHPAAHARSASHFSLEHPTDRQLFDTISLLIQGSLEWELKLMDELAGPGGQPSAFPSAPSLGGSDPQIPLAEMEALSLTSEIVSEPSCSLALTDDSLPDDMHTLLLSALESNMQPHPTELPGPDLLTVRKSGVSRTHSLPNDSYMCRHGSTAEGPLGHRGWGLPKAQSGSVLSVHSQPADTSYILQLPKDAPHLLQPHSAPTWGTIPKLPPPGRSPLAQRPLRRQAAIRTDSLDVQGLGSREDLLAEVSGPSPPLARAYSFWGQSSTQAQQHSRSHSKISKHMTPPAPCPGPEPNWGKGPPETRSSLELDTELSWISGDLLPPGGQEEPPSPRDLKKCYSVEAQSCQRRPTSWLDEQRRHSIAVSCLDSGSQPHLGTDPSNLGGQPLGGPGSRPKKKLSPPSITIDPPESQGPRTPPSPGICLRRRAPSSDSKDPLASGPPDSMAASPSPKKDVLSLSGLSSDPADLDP
row,IC50,Compound
1,380 nM,"COc1cc(C(=O)NCC2CCN(CCNC(=O)C3CCCC3)CC2)cc(C(F)(F)F)c1 [Compound 404, N-((1-(2-(cyclopentanecarboxamido)ethyl)piperidin-4-yl)methyl)-3-methoxy-5-(trifluoromethyl)benzamide]"
2,< 300 nM,"O=C(NCC1CCN(CCNS(=O)(=O)C2CC2)CC1)c1cc(F)cc(Cl)c1 [Compound 390, 3-chloro-N-((1-(2-(cyclopropanesulfonamido)ethyl)piperidin-4-yl)methyl)-5-fluoro-benzamide]"
3,> 10000 nM,"O=C(NCC1CCN(CCNC(=O)C2CCCC2)CC1)c1cc(F)cc(F)c1 [Compound 395, N-((1-(2-(cyclopentanecarboxamido)ethyl)piperidin-4-yl)methyl)-3,5-difluoro-benzamide]"
4,1150 nM,"CC(C)(C)NC(=O)N1CCC[C@H]1CN1CCC(CNC(=O)c2cc(F)cc(C(F)(F)F)c2)CC1 [Compound 410, (S)-N-tert-butyl-2-((4-((3-fluoro-5-(trifluoromethyl)benzamido)methyl)piperidin-1-yl)methyl)pyrrolidine-1-carboxamide]"
5,2080 nM,"CC(C)(C)C(=O)N1CCC[C@H]1CN1CCC(CNC(=O)c2cc(F)cc(C(F)(F)F)c2)CC1 [Compound 423, (S)-3-fluoro-N-((1-((1-pivaloyl-pyrrolidin-2-yl)methyl)piperidin-4-yl)methyl)-5-(trifluoromethyl) benzamide]"
6,> 10000 nM,"CC(C)(C)OC(=O)NCCN1CCC(CNC(=O)c2ccc(F)cc2F)CC1 [Compound 51, tert-butyl 2-(4-((2,4-difluorobenzamido)methyl)piperidin-1-yl)ethylcarbamate]"
7,1780 nM,"O=C(NCC1CCN(CCNC(=O)C2CCCC2)CC1)c1cc(F)cc(Cl)c1 [Compound 397, 3-chloro-N-((1-(2-(cyclopentanecarboxamido)ethyl)piperidin-4-yl)methyl)-5-fluoro-benzamide]"
8,< 300 nM,"O=C(NCC1CCN(C[C@@H]2CCCN2C(=O)C2CCCC2)CC1)c1cc(F)cc(C(F)(F)F)c1 [Compound 425, (S)-N-((1-((1-(cyclopentanecarbonyl)pyrrolidin-2-yl)methyl)piperidin-4-yl)methyl)-3-fluoro-5-(trifluoromethyl)benzamide]"
9,> 10000 nM,"COc1ccc(C(=O)NCC2CCN(CCNS(=O)(=O)C(F)(F)F)CC2)cc1OC [Compound 332, 3,4-dimethoxy-N-((1-(2-(trifluoromethylsulfonamido)ethyl)piperidin-4-yl)methyl)benzamide]"
10,> 10000 nM,"CC(C)(C)OC(=O)NCCN1CCC(CNC(=O)c2cccc(S(C)(=O)=O)c2)CC1 [Compound 45, tert-butyl 2-(4-((3-(methylsulfonyl)benzamido)methyl)piperidin-1-yl)ethylcarbamate]"
11,1500 nM,"O=C(NCC1CCN(CCNC(=O)C2CCCC2)CC1)c1cccc(Br)c1 [Compound 400, 3-bromo-N-((1-(2-(cyclopentanecarboxamido)ethyl)piperidin-4-yl)methyl)benzamide]"

# Further lines, the compound ahead of its results:
row,Compound,IC50
1,"O=C(NCC1CCN(C(=O)CNCCCN2CCOCC2)CC1)c1cc(F)cc(C(F)(F)F)c1 [Compound 270, 3-fluoro-N-((1-(2-(3-morpholinopropylamino)acetyl)piperidin-4-yl)methyl)-5-(trifluoromethyl)benzamide]",> 10000 nM
2,"CS(=O)(=O)N1CCC[C@H]1CN1CCC(CNC(=O)c2cc(F)cc(C(F)(F)F)c2)CC1 [Compound 416, (S)-3-fluoro-N-((1-((1-(methylsulfonyl)pyrrolidin-2-yl)methyl)piperidin-4-yl)methyl)-5-(trifluoromethyl)benzamide]",> 10000 nM
3,"CN(CC1CCN(CCNC(=O)CC(C)(C)C)CC1)C(=O)c1cc(F)cc(C(F)(F)F)c1 [Compound 413, N-((1-(2-(3,3-dimethylbutanamido)ethyl)piperidin-4-yl)methyl)-3-fluoro-N-methyl-5-(trifluoromethyl)benzamide]",> 10000 nM
4,"CC(C)(C)C(O)CN1CCC(CC(=O)Nc2nc3ccccc3[nH]2)CC1 (centres unmarked) [Compound 166, N-(1H-benzo[d]imidazol-2-yl)-2-(1-(2-hydroxy-3,3-dimethylbutyl)piperidin-4-yl)acetamide]",> 10000 nM
5,"CC(C)(C)C(CN1CCC(CC(=O)NC(c2cccc(F)c2)c2cccc(F)c2)CC1)NS(C)(=O)=O (centres unmarked) [Compound 219, N-(bis(3-fluorophenyl)methyl)-2-(1-(3,3-dimethyl-2-(methylsulfonamido)butyl)piperidin-4-yl)acetamide]",> 10000 nM
6,"O=C(NCC1CCN(C[C@@H]2CCCN2S(=O)(=O)CCC(F)(F)F)CC1)c1cc(F)cc(C(F)(F)F)c1 [Compound 422, (S)-3-fluoro-5-(trifluoromethyl)-N-((1-((1-(3,3,3-trifluoropropyl-sulfonyl)pyrrolidin-2-yl)methyl)piperidin-4-yl)methyl) benzamide]",1930 nM
7,"CCS(=O)(=O)NC(CN1CCC(CC(=O)NC(c2cccc(F)c2)c2cccc(F)c2)CC1)C(C)(C)C (centres unmarked) [Compound 220, N-(bis(3-fluorophenyl)methyl)-2-(1-(2-(ethylsulfonamido)-3,3-dimethylbutyl)piperidin-4-yl)acetamide]",6910 nM
8,"CC(C)(C)C(O)CN1CCC(CC(=O)NCCc2ccc(F)cc2)CC1 (centres unmarked) [Compound 177, N-(4-fluorophenethyl)-2-(1-(2-hydroxy-3,3-dimethylbuyl)piperidin-4-yl)acetamide]",> 10000 nM
9,"O=C(NCC1CCN(C[C@@H]2CCCN2S(=O)(=O)C2CCC2)CC1)c1cc(F)cc(C(F)(F)F)c1 [Compound 419, (S)-N-((1-((1-(cyclobutylsulfonyl)pyrrolidin-2-yl)methyl)piperidin-4-yl)methyl)-3-fluoro-5-(trifluoromethyl)benzamide]",1630 nM
10,"CC(C)(C)[C@H](O)C(=O)N1CCC(CNC(=O)c2cc(C(F)(F)F)cc(C(F)(F)F)c2)CC1 [Compound 76, (S)-N-((1-(2-hydroxy-3,3-dimethylbutanoyl)piperidin-4-yl)methyl)-3,5-bis(trifluoromethyl) benzamide]",7620 nM
11,"CC(C)(C)C(N)CN1CCC(CC(=O)NC(c2cccc(F)c2)c2cccc(F)c2)CC1 (centres unmarked) [Compound 217, 2-(1-(2-amino-3,3-dimethylbutyl)piperidin-4-yl)-N-(bis(3-fluorophenyl)methyl)acetamide]",5820 nM
12,"NC1(C(=O)N2CCC(CC(=O)Nc3cc(C(F)(F)F)cc(C(F)(F)F)c3)CC2)CC1 [Compound 190, 2-(1-(1-aminocyclopropanecarbonyl)piperidin-4-yl)-N-(3,5-bis(trifluoromethyl)phenyl) acetamide]",> 10000 nM
13,"CC(C)(C)OC(=O)NC(CN1CCC(CC(=O)NCCc2c[nH]c3ccccc23)CC1)C(C)(C)C (centres unmarked) [Compound 197, tert-butyl 1-(4-(2-(2-(1H-indol-3-yl)ethylamino)-2-oxoethyl)piperidin-1-yl)-3,3-dimethylbutan-2-ylcarbamate]",> 10000 nM

# Target: T2, human α1H T-type channels (Homo sapiens, UniProt O95180)
# T2 construct: expressed in transfected cells; host or cells: HEK 293
# Assay: T-type calcium channel block, whole cell patch clamp in HEK cells (α1H)
# Assay type: cell-based
# Details: HEK cells, patch clamp, mainly non-inactivated protocol; values above 10 μM shown as 10 μM; read-out: T-type Calcium Channel Block α1H IC50
# Description: as §1, §2, §3, §4
# T2 sequence (O95180 whole entry): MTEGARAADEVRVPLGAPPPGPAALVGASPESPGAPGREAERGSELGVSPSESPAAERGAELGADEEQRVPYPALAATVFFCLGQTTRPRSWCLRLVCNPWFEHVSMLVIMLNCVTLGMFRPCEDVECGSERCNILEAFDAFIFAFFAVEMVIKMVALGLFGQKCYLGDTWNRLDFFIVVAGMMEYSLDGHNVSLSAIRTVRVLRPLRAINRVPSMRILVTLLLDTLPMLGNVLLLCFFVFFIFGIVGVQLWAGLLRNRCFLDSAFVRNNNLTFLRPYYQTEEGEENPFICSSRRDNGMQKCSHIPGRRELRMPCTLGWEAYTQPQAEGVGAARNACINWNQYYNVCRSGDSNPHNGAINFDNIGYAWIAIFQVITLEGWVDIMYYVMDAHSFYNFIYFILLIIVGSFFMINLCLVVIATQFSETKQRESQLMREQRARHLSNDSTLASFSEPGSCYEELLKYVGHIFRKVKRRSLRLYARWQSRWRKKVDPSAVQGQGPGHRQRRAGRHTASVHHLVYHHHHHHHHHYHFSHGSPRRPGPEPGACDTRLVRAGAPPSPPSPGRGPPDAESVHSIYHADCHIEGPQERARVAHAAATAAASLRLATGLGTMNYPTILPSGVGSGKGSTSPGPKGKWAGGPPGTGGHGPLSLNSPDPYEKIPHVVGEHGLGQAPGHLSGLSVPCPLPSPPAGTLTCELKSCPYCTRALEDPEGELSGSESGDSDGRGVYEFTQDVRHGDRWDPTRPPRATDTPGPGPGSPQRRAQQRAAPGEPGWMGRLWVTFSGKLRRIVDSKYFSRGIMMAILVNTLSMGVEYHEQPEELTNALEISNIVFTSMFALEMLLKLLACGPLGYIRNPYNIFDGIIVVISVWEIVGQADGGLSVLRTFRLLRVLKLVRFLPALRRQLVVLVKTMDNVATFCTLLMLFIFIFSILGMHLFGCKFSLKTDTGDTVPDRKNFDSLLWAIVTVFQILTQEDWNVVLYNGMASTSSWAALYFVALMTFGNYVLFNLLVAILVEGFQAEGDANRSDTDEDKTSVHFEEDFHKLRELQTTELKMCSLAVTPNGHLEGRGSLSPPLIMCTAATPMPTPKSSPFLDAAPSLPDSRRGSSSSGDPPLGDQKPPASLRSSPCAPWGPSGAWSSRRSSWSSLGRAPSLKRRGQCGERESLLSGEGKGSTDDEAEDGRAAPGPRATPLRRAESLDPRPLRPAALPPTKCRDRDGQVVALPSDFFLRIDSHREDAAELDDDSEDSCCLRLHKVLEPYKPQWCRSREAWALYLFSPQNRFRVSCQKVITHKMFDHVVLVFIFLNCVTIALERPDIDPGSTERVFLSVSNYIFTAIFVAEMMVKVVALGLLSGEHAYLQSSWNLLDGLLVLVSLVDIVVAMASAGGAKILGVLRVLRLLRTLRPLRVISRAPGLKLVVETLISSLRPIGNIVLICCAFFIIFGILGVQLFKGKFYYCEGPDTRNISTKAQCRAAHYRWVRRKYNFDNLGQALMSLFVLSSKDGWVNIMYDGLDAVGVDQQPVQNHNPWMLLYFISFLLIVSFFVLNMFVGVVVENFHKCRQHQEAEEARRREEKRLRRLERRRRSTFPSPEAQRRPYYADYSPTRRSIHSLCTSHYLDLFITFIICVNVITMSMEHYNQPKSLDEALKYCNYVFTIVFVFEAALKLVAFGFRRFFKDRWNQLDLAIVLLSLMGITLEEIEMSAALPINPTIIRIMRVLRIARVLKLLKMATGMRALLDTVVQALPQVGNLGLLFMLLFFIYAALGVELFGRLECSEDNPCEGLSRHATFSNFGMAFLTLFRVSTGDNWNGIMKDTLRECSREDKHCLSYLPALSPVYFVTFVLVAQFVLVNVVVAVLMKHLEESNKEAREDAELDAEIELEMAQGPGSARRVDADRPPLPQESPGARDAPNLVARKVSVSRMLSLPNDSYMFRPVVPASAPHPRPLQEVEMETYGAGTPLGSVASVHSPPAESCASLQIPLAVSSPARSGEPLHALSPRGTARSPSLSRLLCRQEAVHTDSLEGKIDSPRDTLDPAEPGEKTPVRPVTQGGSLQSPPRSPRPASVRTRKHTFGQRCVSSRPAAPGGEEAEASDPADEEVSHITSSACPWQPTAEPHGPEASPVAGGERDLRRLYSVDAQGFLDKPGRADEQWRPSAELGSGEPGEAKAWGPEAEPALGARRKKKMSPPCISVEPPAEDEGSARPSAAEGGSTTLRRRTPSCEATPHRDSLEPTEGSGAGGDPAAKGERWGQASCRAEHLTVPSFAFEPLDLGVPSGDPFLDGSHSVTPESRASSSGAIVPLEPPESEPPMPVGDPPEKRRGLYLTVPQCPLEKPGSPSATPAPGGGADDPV
row,IC50,Compound
1,290 nM,"CC1(C(=O)N2CC(N3CCC(CNC(=O)c4cc(F)cc(Cl)c4)CC3)C2)CCC(F)(F)CC1 [Compound 611, 3-chloro-N-((1-(1-(4,4-difluoro-1-methylcyclohexanecarbonyl)azetidin-3-yl)piperidin-4-yl)methyl)-5-fluorobenzamide]"
2,> 10000 nM,"O=C(CN1CCC(CNC(=O)c2cc(C(F)(F)F)cc(C(F)(F)F)c2)CC1)N[C@H]1CC[C@H](O)CC1 [Compound 96, N-((1-(2-((1r,4r)-4-hydroxycyclo-hexylamino)-2-oxoethyl)piperidin-4-yl)methyl)-3,5-bis(trifluoromethyl) benzamide]"
3,> 10000 nM,"CN1CCC(C(=O)NCCN2CCC(CNC(=O)c3cc(C(F)(F)F)cc(C(F)(F)F)c3)CC2)CC1 [Compound 61, N-(2-(4-((3,5-bis(trifluoromethyl)benzamido)methyl)piperidin-1-yl)ethyl)-1-methylpiperidin-4-carboxamide]"
4,210 nM,"CC1CCCN(C(=O)CN2CCC(CNC(=O)c3cc(C(F)(F)F)cc(C(F)(F)F)c3)CC2)C1 (centres unmarked) [Compound 99, N-((1-(2-(3-methylpiperidin-1-yl)-2-oxoethyl)piperidin-4-yl)methyl)-3,5-bis(trifluoromethyl)benzamide]"
5,140 nM,"CN(C(=O)CN1CCC(CNC(=O)c2cc(C(F)(F)F)cc(C(F)(F)F)c2)CC1)C1CCCCC1 [Compound 101, N-((1-(2-(cyclohexyl(methyl)amino)-2-oxoethyl)piperidin-4-yl)methyl)-3,5-bis(trifluoromethyl)benzamide]"

# Source: patent US8569344B2, “N-piperidinyl acetamide derivatives as calcium channel blockers” (Zalicus Pharmaceuticals Ltd., priority 2008, dated 2013)
